Measured values reported in patent US5332734A, “Oxazinone derivative” (Japan Tobacco, Incorporated, priority 1991, dated 1994).
pIC50: −log10 of the molar value.

Key:
Assay type in all cases: biochemical
human cathepsin G (HCG) = molecular target: T1, human cathepsin G (HCG) (Homo sapiens, UniProt P08311); experiment: HCG inhibitory activity; settings: HCG 50 nM, substrate 0.5 mM, pH 7.5
T1 construct: purchased Cosmo Bio Inc
T1 sequence (P08311 21-255): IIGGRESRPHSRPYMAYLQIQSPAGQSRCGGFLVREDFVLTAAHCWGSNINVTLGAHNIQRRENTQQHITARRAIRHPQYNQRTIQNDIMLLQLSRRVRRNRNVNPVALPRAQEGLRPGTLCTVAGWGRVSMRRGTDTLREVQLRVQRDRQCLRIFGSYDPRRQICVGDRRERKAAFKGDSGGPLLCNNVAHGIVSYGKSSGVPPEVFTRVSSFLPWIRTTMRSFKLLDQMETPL
Description: (§1) Inhibotory activities of the oxadinone derivative of the present invention against human leukocyte elastase (HLE), human sputum elastase (HSE), human cathepsin G (HCG), bovine pancreatic α-chymotrypsin (CYT) and bovine pancreatic trypsin (TRY) were measured as follows:
(3) Measurement of HCG Inhibitory Activity
a) Enzyme Preparing Method Bought from Cosmo Bio Inc.
(§2) Employed was a measuring method similar to that described previously in conjunction with the measurement of the HLE inhibiting activity, except that used was a buffer solution of pH 7.5. The final concentrations of HCG and the synthetic substrate (Ac-Ala-Ala-Pro-Phe-pNA; FUNAKOSHI) in the solution of the enzyme reaction were 50 nM and 0.5 mM, respectively.

[1] = molecular target: T2, bovine pancreatic α-chymotrypsin (CYT) (Bos taurus, UniProt P00766); experiment: CYT inhibitory activity; settings: CYT 3.4 nM, substrate 0.273 mM, pH 8.0
T2 construct: purchased Sigma Inc; host or cells: bovine pancreas (by its name)
Description: as §1
(4) Measurement of CYT Inhibitory Activity
a) Enzyme Preparing Method Bought from Sigma Inc.
as §2, with “8.0.” for “7.5.”, “CYT” for “HCG”, “3.4” for “50”, “0.273” for “0.5”

[2] = molecular target: T3, human leukocyte elastase (HLE) (Homo sapiens, UniProt P08246); experiment: HLE inhibitory activity; settings: HLE 5.63 nM, substrate 0.2625 mM, pH 8.6, 37° C.
T3 construct: applying a density gradient centrifugal operation so as to obtain neutrophils; from tissue; host or cells: neutrophils from human venous blood
T3 sequence (P08246 30-267): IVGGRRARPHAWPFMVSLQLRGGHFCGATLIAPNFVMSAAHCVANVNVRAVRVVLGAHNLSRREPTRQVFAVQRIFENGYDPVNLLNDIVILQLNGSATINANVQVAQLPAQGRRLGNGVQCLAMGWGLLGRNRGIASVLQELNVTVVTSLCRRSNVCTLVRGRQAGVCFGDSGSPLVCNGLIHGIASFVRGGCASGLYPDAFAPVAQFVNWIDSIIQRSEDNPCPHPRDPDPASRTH
Description: as §1
(1) Measurement of HLE Inhibitory Activity
A buffy coat was obtained by subjecting human vein blood to centrifugal separation, followed by adding distilled water to the buffy coat thus obtained for performing a low tension treatment so as to collapse erythrocytes. A mixture consisting of 10 parts of a 33.4% Conrey 400 solution and 24 parts of 9% of Ficoll solution was added to the residual blood cell component, followed by applying a density gradient centrifugal operation so as to obtain neutrophils. The neutrophil fraction was washed three times with Hanks' buffer so as to recover cells, which were frozen at -80° C. for preservation until the cells were used. The cells preserved under a frozen state were thawed with warm water of 37° C. and suspended in the lysis buffer (0.1M Tris-HCl pH 7.5, 1M MgCl2, 0.1% Brij 35), the amount of the buffer being 9 times as much as that of the cells. Then, the suspended cells were collapsed with polotron while cooling the suspension with ice. Then, the suspension was subjected to a centrifugal separation at 100,000×g for one hour so as to remove the precipitate. Also, a buffer (5 mM Tris-HCl pH 7.5, 1M NaCl, 1.1% Brij 35) was added to the supernatant in an amount twice as much as the supernatant so as to prepare a crude solution of an enzyme extract. The crude solution of an enzyme extract was adsorbed on an aprotinin affinity column. Further, the active fraction eluted with a 50 ml glycine-HCl solution (pH 3.3, 1M NaCl, 0.1% Brij 35) was passed through a MONO S ion-exchange chromatography. The active fraction eluted with a 2M NaCl linear gradient was dialyzed and, then, subjected to a freeze-drying so as to prepare an enzyme sample.
A test compound to be detected was dissolved in DMSO (for fluorometry) so as to prepare solutions of various concentrations. Then, the solution of 0.2M Tris-HCl (pH 9.6) was added to each of the solutions in an amount twice as much as the solution so as to prepare a test solution. On the other hand, a synthetic substrate (MeOSuc-Ala-Pro-Val-pNA; FUNAKOSHI) was dissolved in DMSO, followed by adding 0.2M tris-HCl solution (pH 8.6) to the solution in an amount twice as much as the solution so as to prepare a substrate solution.
A microplate (NUNK) provided with 96 wells was used for the reaction. The reaction was repeatedly carried out 6 times for each concentration of the test compound. Each of 140 μl of the enzyme solution (0.2M Tris-HCl, pH 8.6), 30 μl of the test material solution and 30 μl of the substrate solution was pre-incubated for 10 minutes at 37° C. for each well of the microplate. After incubation of a mixture of the enzyme solution and the test material solution for 10 minutes, the substrate solution was added so as to carry out the enzyme reaction. For determining the substrate decomposition, the absorbance (405 run) of the released pNA was measured by a microplate reader (MTP-100; CORONA), and the substrate decomposition was calculated on the basis of the average value of the absorbances repeatedly measured 6 times. The inhibitory concentration of the test compound relative to the decomposition amount of the substrate in the case where the test compound was not added was obtained as IC50 value.

Structure (SMILES) | pIC50 (human cathepsin G (HCG)) | pIC50 [1] | pIC50 [2]
Cc1cccc2nc([C@@H](NC(=O)COC3c4ccccc4-c4ccccc43)C(C)C)oc(=O)c12 [Compound 3, 2-{1(S)-[(9-fluorenyloxyacetyl)amino]-2-methylpropyl}-5-methyl-4H-3,1-benzoxazin-4-one] | < 4.56 | 5.46 | 6.29
Cc1cccc2nc([C@@H](NC(=O)C=C3c4ccccc4-c4ccccc43)C(C)C)oc(=O)c12 [Compound 6, 2-{1(S)-[(fluorene-Δ^9, ^α -acetyl)amino]-2-methylpropyl}-5-methyl-4H-3,1-benzoxazin-4-one] |  |  | 6.19
CC(=O)N(CCC(=O)N[C@H](c1nc2cccc(C)c2c(=O)o1)C(C)C)C1c2ccccc2-c2ccccc21 [Compound 5, 2-[1(S)-[[N-acetyl-N-(9-fluorenyl)-β-alanyl]amino]-2-methylpropyl]-5-methyl-4H-3,1-benzoxazin-4-one] | < 4.91 | 5.71 | 6.62
Cc1cccc2nc(C(C)(C)NC(=O)COC3c4ccccc4-c4ccccc43)oc(=O)c12 [Compound 8, 2-{1-[(9-fluorenyloxyacetyl)amino]-1-methylethyl}-5-methyl-4H-3,1-benzoxazin-4-one] |  |  | 6.00
Cc1cccc2nc(CNC(=O)COC3c4ccccc4-c4ccccc43)oc(=O)c12 [Compound 7, 2-[(9-fluorenyloxyacetyl)aminomethyl]-5-methyl-4H-3,1-benzoxazin-4-one] | < 5.12 | < 5.12 | 5.89
Cc1cccc2nc([C@@H](NC(=O)CNC(=O)C3c4ccccc4-c4ccccc43)C(C)C)oc(=O)c12 [Compound 4, 2-[1(S)-[[N-(9-fluorenylcarbonyl)glycyl]amino]-2-methylpropyl]-5-methyl-4H-3,1-benzoxazin-4-one] | 4.95 | 5.18 | 6.12
